Assays:
hCA IX = hCA IX (Homo sapiens, UniProt Q16790); assay: stopped flow CO2 hydrase assay, hCA IX; assay type: biochemical; details: errors ±5–10% of the stated values
Experimental: (§1) The activity of the CA-catalyzed CO2 hydration reaction was evaluated employing an applied photophysics stopped-flow instrument. […] A minimum of six traces of the starting 5–10% of the reaction were analysed to measure the initial velocity for each inhibitor. In a similar manner, the uncatalyzed rates were evaluated and subtracted from the overall calculated rates. Stock inhibitor solutions (10 mM) were prepared in distilled–deionized water, and dilutions up to 0.01 nM were prepared with distilled–deionized water after that. Preincubation of the inhibitor enzyme solutions at room temperature to enable the formation of the E-I complex was carried out for 15 min before starting the experiment. The inhibition constants were determined employing PRISM 3, while the kinetic parameters for the uninhibited enzymes were calculated using Lineweaver-Burk plots that comprise the mean of at least three separate measurements with errors ranging to ±5–10% of the stated values[37]^,[38].
(§2) This panel comprised the two ubiquitously expressed cytosolic hCA I and II isoforms, along with the two tumour-related transmembrane hCA IX and XII isoforms.

hCA XII = hCA XII (Homo sapiens, UniProt O43570); assay: stopped flow CO2 hydrase assay, hCA XII; assay type: biochemical; details: errors ±5–10% of the stated values
Experimental: as §1, §2

hCA II = hCA II (Homo sapiens, UniProt P00918); assay: stopped flow CO2 hydrase assay, hCA II; assay type: biochemical; details: for Ki: stopped flow CO2 hydrase assay, errors ±5–10% of the stated values; for folds of potency compared to AAZ against isoform hCA II: relative to AAZ (12.1 nM); for inhibitory activity against hCA II (in words): compared to their para-sulphonamide analogues
Experimental: as §1, §2

hCA I = hCA I (Homo sapiens, UniProt P00915); assay: stopped flow CO2 hydrase assay, hCA I; assay type: biochemical; details: for folds higher potency against hCA I when compared to the standard (AAZ, V): relative to AAZ; for Ki: stopped flow CO2 hydrase assay, errors ±5–10% of the stated values
Experimental: as §1, §2

hCA XII, sequence (O43570 25-354): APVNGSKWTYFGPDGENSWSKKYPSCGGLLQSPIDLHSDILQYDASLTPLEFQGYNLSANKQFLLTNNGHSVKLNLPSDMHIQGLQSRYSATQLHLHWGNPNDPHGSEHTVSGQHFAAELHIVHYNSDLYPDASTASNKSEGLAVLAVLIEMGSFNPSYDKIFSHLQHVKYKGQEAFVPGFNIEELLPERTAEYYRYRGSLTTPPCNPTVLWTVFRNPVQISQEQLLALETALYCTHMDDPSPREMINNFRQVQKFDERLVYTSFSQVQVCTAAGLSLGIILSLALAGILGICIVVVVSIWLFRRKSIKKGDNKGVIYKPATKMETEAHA
hCA I, sequence (P00915 whole entry): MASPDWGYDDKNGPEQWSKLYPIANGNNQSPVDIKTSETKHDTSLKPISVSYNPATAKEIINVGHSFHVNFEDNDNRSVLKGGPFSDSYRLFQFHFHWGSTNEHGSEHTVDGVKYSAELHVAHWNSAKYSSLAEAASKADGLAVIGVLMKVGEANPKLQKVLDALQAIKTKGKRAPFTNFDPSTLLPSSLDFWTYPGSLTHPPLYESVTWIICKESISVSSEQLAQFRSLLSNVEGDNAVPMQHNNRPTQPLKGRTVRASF

NS(=O)(=O)c1ccc(Nc2ncnc3ccc(-c4ccsc4)cc23)cc1 [Compound 4f, 4-((6-(thiophen-3-yl)quinazolin-4-yl)amino)benzenesulfonamide]
Ki (hCA IX): 86.5 nM | Ki (hCA XII): 89.5 nM | Ki (hCA II): 37.1 nM | folds higher potency against hCA I when compared to the standard (AAZ, V) (hCA I): 4 folds | Ki (hCA I): 60.9 nM

NS(=O)(=O)c1ccc(Nc2ncnc3cc(-c4cccc(O)c4)ccc23)cc1 [Compound 4j, 4-((7–(3-hydroxyphenyl)quinazolin-4-yl)amino)benzenesulfonamide]
Ki (hCA IX): 245 nM | Ki (hCA XII): 66.7 nM | Ki (hCA II): 66.3 nM | Ki (hCA I): 361 nM

NS(=O)(=O)c1ccc(Nc2ncnc3ccc(Br)cc23)cc1 [Compound 3a]
Ki (hCA IX): 174 nM | Ki (hCA XII): 46.5 nM | folds of potency compared to AAZ against isoform hCA II (hCA II): 1.4 folds | Ki (hCA II): 8.7 nM | folds higher potency against hCA I when compared to the standard (AAZ, V) (hCA I): 2.8 folds | Ki (hCA I): 89.4 nM

NS(=O)(=O)c1ccc(Nc2ncnc3ccc(-c4ccc(C=O)cc4)cc23)cc1 [Compound 4b, 4-((6–(4-formylphenyl)quinazolin-4-yl)amino)benzenesulfonamide]
Ki (hCA IX): 86.9 nM | Ki (hCA XII): 67.4 nM | Ki (hCA I): 651 nM

NS(=O)(=O)c1cccc(Nc2ncnc3ccc(-c4ccc(F)cc4)cc23)c1 [Compound 4g, 3-((6–(4-fluorophenyl)quinazolin-4-yl)amino)benzenesulfonamide]
Ki (hCA IX): 229 nM | Ki (hCA XII): 30.5 nM | Ki (hCA II): 231 nM | Ki (hCA I): 3130 nM

NS(=O)(=O)c1ccc(Nc2ncnc3ccc(-c4ccc(F)cc4)cc23)cc1 [Compound 4c, 4-((6–(4-fluorophenyl)quinazolin-4-yl)amino)benzenesulfonamide]
Ki (hCA IX): 560 nM | Ki (hCA XII): 93 nM | Ki (hCA II): 47.1 nM | Ki (hCA I): 931 nM

NS(=O)(=O)c1ccc(Nc2ncnc3ccc(-c4cccc([N+](=O)[O-])c4)cc23)cc1 [Compound 4d, 4-((6–(3-nitrophenyl)quinazolin-4-yl)amino)benzenesulfonamide]
Ki (hCA IX): 265 nM | Ki (hCA XII): 90.7 nM | Ki (hCA II): 55.7 nM | Ki (hCA I): 588 nM

NS(=O)(=O)c1cccc(Nc2ncnc3cc(-c4cccc(O)c4)ccc23)c1 [Compound 4k, 3-((7–(3-hydroxyphenyl)quinazolin-4-yl)amino)benzenesulfonamide]
Ki (hCA IX): 90.3 nM | Ki (hCA XII): 69.7 nM | inhibitory activity against hCA II (in words) (hCA II): loss of activity | Ki (hCA II): 2520 nM | Ki (hCA I): 4680 nM

COc1ccc(-c2ccc3ncnc(Nc4ccc(S(N)(=O)=O)cc4)c3c2)cc1 [Compound 4e, 4-((6–(4-methoxyphenyl)quinazolin-4-yl)amino)benzenesulfonamide]
Ki (hCA IX): 86.9 nM | Ki (hCA XII): 77 nM | folds of potency compared to AAZ against isoform hCA II (hCA II): 2.6 folds | Ki (hCA II): 4.6 nM | folds higher potency against hCA I when compared to the standard (AAZ, V) (hCA I): 2.7 folds | Ki (hCA I): 91.2 nM

NS(=O)(=O)c1ccc(Nc2ncnc3ccc(-c4ccc(N5CCOCC5)cc4)cc23)cc1 [Compound 4h, 4-((6–(4-morpholinophenyl)quinazolin-4-yl)amino)benzenesulfonamide]
Ki (hCA IX): 337 nM | Ki (hCA XII): 49.8 nM | Ki (hCA II): 112 nM | Ki (hCA I): 548 nM

NS(=O)(=O)c1cccc(Nc2ncnc3ccc(Br)cc23)c1 [Compound 3b]
Ki (hCA IX): 95.3 nM | Ki (hCA XII): 39.4 nM | inhibitory activity against hCA II (in words) (hCA II): loss of activity | Ki (hCA II): 5760 nM | inhibitory activity against hCA I (in words) (hCA I): lost all activity | Ki (hCA I): 7100 nM

NS(=O)(=O)c1cccc(Nc2ncnc3ccc(-c4ccc(C=O)o4)cc23)c1 [Compound 4i, 3-((6–(5-formylfuran-2-yl)quinazolin-4-yl)amino)benzenesulfonamide]
Ki (hCA IX): 488 nM | Ki (hCA XII): 52.7 nM | Ki (hCA II): 2420 nM | Ki (hCA I): 5580 nM

NS(=O)(=O)c1cccc(Nc2ncnc3ccc(-c4ccccc4)cc23)c1 [Compound 4l, 3-((6-phenylquinazolin-4-yl)amino)benzenesulfonamide]
melting point: 327 to 329 °C | Ki (hCA IX): 88.8 nM | Ki (hCA XII): 89.4 nM | inhibitory activity against hCA II (in words) (hCA II): loss of activity | Ki (hCA II): 678 nM | Ki (hCA I): 6570 nM

NS(=O)(=O)c1ccc(Nc2ncnc3ccc(-c4ccccc4)cc23)cc1 [Compound 4a, 4-((6-phenylquinazolin-4-yl)amino)benzenesulfonamide]
Ki (hCA IX): 180 nM | Ki (hCA XII): 65.7 nM | folds of potency compared to AAZ against isoform hCA II (hCA II): 5 folds | Ki (hCA II): 2.4 nM | Ki (hCA I): 600 nM

From publication PMC8973350, “4-Anilinoquinazoline-based benzenesulfonamides as nanomolar inhibitors of carbonic anhydrase isoforms I, II, IX, and XII: design, synthesis, in-vitro, and in-silico biological studies” (Journal of Enzyme Inhibition and Medicinal Chemistry, 2022)
